From PMC6832513, “Antimalarial Properties of Dunnione Derivatives as NQO2 Substrates” (Molecules, 2019)
Several values for one entry are separate records, joined by “and”; a condition that tells them apart may be missing. Identical values can stand only once. Entries after “also recorded” stand apart in the source; their conditions may differ.

Experiments:
[1] = Acute toxicity in healthy Swiss mice; assay type: in vivo; settings: for weight variation compared to the vehicle control group: healthy Swiss mice, 50 mg/kg intraperitoneal, Days 7, 14 and 20; for mortality or major behavioral changes: mouse, in vivo, ip, 50 mg/kg
Experimental: Compounds 1 and 3 were diluted in 50% DMSO and tested at 50 mg/kg. Protocols used for acute oral toxicity measurement were previously described. Briefly, mice were randomly divided into three groups of three mice and treated once a day from D0 to D3 by the intraperitoneal route with 200 µL of Compound 1 or Compound 3 at 50 mg/kg, or DMSO 50%.

[2] = test system: P. falciparum strain FcB1; assay: In vitro antiplasmodial activity, SYBR Green I-based fluorescence assay; assay type: cell-based, Plasmodium falciparum; settings: for IC50: Plasmodium falciparum, FCB1, 48 h, P. falciparum FcB1 (chloroquine-resistant strain), 48 h, read-out: IC50
Experimental: The in vitro anti-malarial activity was investigated using the SYBR Green I-based fluorescence assay. The asexual intra-erythrocytic stage of P. falciparum laboratory strain FcB1 (chloroquine-resistant strain) was maintained in RPMI 1640 medium containing l-glutamine 200 µM, Hepes 25 mM and 5% human serum (Etablissement Français du Sang—EFS, Toulouse, France). For anti-malarial drug assays, stock solutions of compounds were diluted serially in RPMI 1640 culture medium to test final concentrations between 0.001 and 1 µg/mL in triplicates in a 96-well plate. The final concentration of DMSO was 0.5%. A suspension of sorbitol-synchronized, infected red blood cells (iRBCs) was adjusted to 1% parasitemia and 2% hematocrit in complete medium and added to the wells. Negative controls were prepared with a suspension of iRBCs and 0.5% DMSO. Chloroquine was used as the positive control. Test plates were incubated at 37 °C for 48 h. Afterwards, 100 μL SYBR Green I fluorescent lysis buffer were added to each well and incubated in a dark place at room temperature for 2 h. Fluorescence data were acquired using a fluorescence plate reader (BMG Fluostar Galaxy Labtech) with excitation and emission wavelengths at 485 nm and 518 nm, respectively. The fluorescence values (after subtraction of the background fluorescence of the non-parasitized RBCs) were plotted against the log of the drug concentration, and analyzed by non-linear regression (sigmoidal dose response/variable slope equation) to yield the IC50 (50% inhibitory concentration) that served as a measure of the anti-malarial activity.

[3] = test system: P. chabaudi chabaudi; assay: Four-days suppressive test, P. chabaudi chabaudi mice model (uncomplicated malaria); assay type: in vivo, Plasmodium chabaudi chabaudi in Swiss mice; settings: for % inhibition of parasite density at D8: 50 mg/kg intraperitoneal D0 to D3, D8; for Pcc parasite density compared to DMSO treatment: 50 mg/kg intraperitoneal D0 to D3, D8 (peak of parasitemia), p < 0.0001; for weight development at D11 after Pcc infection: 50 mg/kg intraperitoneal D0 to D3, D11; for death after Pcc infection: 50 mg/kg intraperitoneal D0 to D3, monitored 13 days
Experimental: As previously described, the four-days suppressive standard test described by Knight and Peters was used to evaluate antimalarial activity of Compounds 1 and 3. P. chabaudi chabaudi (Pcc) and P. berghei ANKA (PbA) infections in Swiss mice were used as experimental models for uncomplicated and cerebral malaria, respectively. […] On the first day (D0), mice were inoculated intraperitoneally with 0.2 mL of infected blood containing about 1 × 10^6 parasitized erythrocytes. […] All mice groups were treated similarly for four consecutive days (D0–D3). Weight, parasitemia and survival were followed daily. To follow peripheral parasite density, thin blood smears were made daily from tail blood from D3 to D14. Blood smears were fixed with methanol and stained with a fast-acting variation of the May–Grünwald Giemsa staining (RAL 555 kit, RAL diagnostics). Average percentage chemosuppression was calculated at D8 for both infection models as ((A − B)/A) × 100 where A is the average percentage parasitemia in the negative control group and B is the average percentage parasitemia in the test group. Survival was monitored twice daily. […]

[4] = target: T1, NQO2 (Homo sapiens, UniProt P16083); assay: EPR measurement of free radicals (ROS) produced after metabolism by NQO2; assay type: biochemical; settings: for radical production after reduction by NQO2: EPR with DMPO spin trap; for radical production after adding the specific NQO2 inhibitor S29434 / ROS after NQO2 Reduction: EPR; for radical production after adding the specific NQO2 inhibitor S29434: S29434 30 µM; for ROS after NQO2 Reduction: purified NQO2 20 µg/mL, compound 125 µM, BNAH 1 mM, DMPO 125 mM, grades - to + + + + +, key not given
T1 construct: The experiments were conducted with purified enzyme NQO2 (20 µg/mL)
T1 sequence (P16083 1-231): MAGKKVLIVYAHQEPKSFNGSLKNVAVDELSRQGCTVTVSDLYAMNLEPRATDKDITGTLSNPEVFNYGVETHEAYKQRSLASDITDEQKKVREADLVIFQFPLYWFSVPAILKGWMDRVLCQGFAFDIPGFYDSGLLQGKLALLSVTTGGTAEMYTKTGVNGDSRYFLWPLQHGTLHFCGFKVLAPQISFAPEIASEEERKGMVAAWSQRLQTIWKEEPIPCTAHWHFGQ
Experimental: As in previous work, we used an indirect assay to characterize the substrates. […] Using the capacity of NQO2 to reduce quinones into hydroquinones or quinols, we incubated the substrate candidates with the enzyme and its co-substrate, a synthetic hydride donor, N-benzyldihydronicotinamide. […] Thus, using an EPR-based assay, it was possible to evaluate the potency of the process by quantifying those bursts by measuring for the presence of free radicals. The rationale of the process was based on the simple idea that such substrates would generate bursts of ROS, which are particularly toxic for infected red cells.
We measured the ability of the selected compounds to produce superoxide radicals during the redox cycle of NQO2 by EPR spectroscopy. The following compounds were used as molecular tools: Menadione (Figure 1) as a reference compound and NQO2 substrate, S29434 as a specific NQO2 inhibitor [17] and dimethyl-pyrroline-N-oxide (DMPO) as a spin trap reagent to characterize ROS.
The experiments were conducted with purified enzyme NQO2 (20 µg/mL), DMPO (125 mM), tested compounds (125 µM) and BNAH (1 mM). For inhibition assays, we added S29434 (30 µM). All analyses were performed at room temperature. EPR spectra were recorded with a Bruker EMX-8/2.7 (9.86 GHz) with a high-sensitivity cavity (4119/HS 0205) and a gaussmeter (Bruker, Wissembourg, France), at X-band. For analyses, we used a flat quartz cell, FZKI160-5 × 0.3 mm (Magnettech, Berlin, Germany). We performed data processing and spectrum acquisition with WINEPR software (Bruker). Scanning parameters were: Number of scans, 5; magnetic field, 3460–3560 G; sweep width, 100 G; scan rate, 1.2 G/s; modulation amplitude, 1 G; sweep time, 83.88 s; time constant, 40.96 ms; modulation frequency, 100 kHz; and microwave power, 20 mW. The EPR spectra were analyzed as reported previously. The EPR spectrum was presented with the magnetic field on the x-axis in gauss (g) and the intensity of the peaks on the y-axis in arbitrary units (a.u.).

SMILES	weight variation compared to the vehicle control group [1]	mortality or major behavioral changes [1]	TI (Therapeutic Index = CC50/IC50) [2]	IC50 [2] [nM]	% inhibition of parasite density at D8 [3]	Pcc parasite density compared to DMSO treatment [3]	weight development at D11 after Pcc infection [3]	death after Pcc infection [3]	radical production after reduction by NQO2 [4]	radical production after adding the specific NQO2 inhibitor S29434 [4]	ROS after NQO2 Reduction [4]	efficacy on parasite density compared to the CQ treatment ([3]; 50 mg/kg intraperitoneal vs CQ, D8)
COc1cccc2c1C1=C(C(=O)C2=O)C(C)(C)C(C)O1 (centres unmarked) [Compound 1]	similar	did not cause mortality or major behavioral changes	3.83	633 ± 740	74.8% and 90.6%	highly reduced	lost more weight than other groups	did not cause any death	produced radicals; also recorded: induced a production of ROS	decreased	+ +	
COc1ccc2c(c1)C(=O)C(=O)C1=C2OC(C)C1(C)C (centres unmarked) [Compound 3]	similar	did not cause mortality or major behavioral changes	1.70	845 ± 334	90.6% and 74.8%	highly reduced	lost more weight than other groups	did not cause any death	produced radicals; also recorded: induced a production of ROS	decreased	+ + +	less effective
